In ChEMBL document CHEMBL1201862, “PubChem BioAssay data set” (2004):
Counter-ions that a name gives are not always drawn. Blank lines part the entries; values can stand above or below the molecule they belong to. Active and inactive are the calls of the source.

Legend:
HEK293 [1] = experiment: cells; conditions: Homo sapiens
HEK293 [2] = experiment: cells; conditions: Homo sapiens; remark: listed apart in the source
[3] = insulin promoter down-regulators in MIN6 cells, imaging, high-content screening, mouse beta cells (AID 1628); type: functional
[4] = cytotoxicity in MIN6 insulinoma cells, dose response, cytotoxicity control, cell-based, mouse insulinoma (AID 2122); type: functional;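 note: confirmatory high-throughput counterscreen run to flag cytotoxic compounds; mouse MIN-6 beta cells carrying an insulin promoter eGFP reporter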
Vero = Vero cell cytotoxicity, cytotoxicity control for flavivirus capping enzyme inhibitors (AID 588742); type: functional; conditions: Chlorocebus sabaeus
[5] = biological target: Heat shock protein HSP 90-alpha (Homo sapiens, UniProt P07900); type: functional, organism-based
Genome polyprotein = Genome polyprotein (dengue virus type 2, UniProt P29990); experiment: Dengue-2 NS5 methyltransferase inhibitors, primary screen, biochemical, confirmation dose response (AID 588689); type: functional
Sequence of Genome polyprotein (P29990 2492-3391 limits assumed): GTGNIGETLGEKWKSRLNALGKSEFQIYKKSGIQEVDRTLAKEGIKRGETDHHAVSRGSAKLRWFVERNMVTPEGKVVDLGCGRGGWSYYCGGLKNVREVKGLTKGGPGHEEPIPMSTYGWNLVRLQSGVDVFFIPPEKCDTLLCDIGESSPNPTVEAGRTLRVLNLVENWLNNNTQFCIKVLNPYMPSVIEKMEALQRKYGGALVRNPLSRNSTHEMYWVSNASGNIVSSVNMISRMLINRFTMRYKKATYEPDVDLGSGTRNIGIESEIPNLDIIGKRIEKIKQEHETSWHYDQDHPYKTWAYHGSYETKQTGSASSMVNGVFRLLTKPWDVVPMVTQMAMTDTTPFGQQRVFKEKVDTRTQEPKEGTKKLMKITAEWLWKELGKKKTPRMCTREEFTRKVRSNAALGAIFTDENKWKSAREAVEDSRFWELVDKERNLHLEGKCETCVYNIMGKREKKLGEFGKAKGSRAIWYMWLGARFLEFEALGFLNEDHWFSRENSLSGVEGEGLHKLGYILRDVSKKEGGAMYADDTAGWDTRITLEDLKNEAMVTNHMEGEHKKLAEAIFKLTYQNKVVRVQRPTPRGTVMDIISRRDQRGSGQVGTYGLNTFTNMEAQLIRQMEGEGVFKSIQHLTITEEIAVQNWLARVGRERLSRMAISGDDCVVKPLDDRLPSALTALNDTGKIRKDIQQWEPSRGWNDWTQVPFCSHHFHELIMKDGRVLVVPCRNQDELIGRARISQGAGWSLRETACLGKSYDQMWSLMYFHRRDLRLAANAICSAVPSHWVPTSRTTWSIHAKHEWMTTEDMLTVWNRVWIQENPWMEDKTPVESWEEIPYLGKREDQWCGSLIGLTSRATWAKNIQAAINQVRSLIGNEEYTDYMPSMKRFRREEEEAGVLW

Cytochrome P450 3A4 = Cytochrome P450 3A4 (Homo sapiens, UniProt P08684);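 note: CYP3A4 tested as one member of a cytochrome P450 panel screen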
Sequence of Cytochrome P450 3A4 (P08684 whole entry): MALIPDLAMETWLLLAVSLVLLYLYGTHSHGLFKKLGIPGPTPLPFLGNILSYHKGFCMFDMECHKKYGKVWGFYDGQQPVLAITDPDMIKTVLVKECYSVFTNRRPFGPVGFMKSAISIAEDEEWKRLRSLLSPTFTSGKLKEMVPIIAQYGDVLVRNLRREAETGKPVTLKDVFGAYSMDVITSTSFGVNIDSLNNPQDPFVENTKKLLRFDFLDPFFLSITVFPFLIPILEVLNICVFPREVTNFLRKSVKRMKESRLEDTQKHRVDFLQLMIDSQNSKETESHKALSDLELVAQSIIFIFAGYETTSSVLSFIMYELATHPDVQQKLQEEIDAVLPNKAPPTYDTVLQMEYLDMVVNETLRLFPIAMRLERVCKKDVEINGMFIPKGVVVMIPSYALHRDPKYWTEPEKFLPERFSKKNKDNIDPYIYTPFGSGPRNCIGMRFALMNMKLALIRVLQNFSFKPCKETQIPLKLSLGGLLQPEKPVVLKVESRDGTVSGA

SUMO E1/E2 = SUMO E1/E2 (Homo sapiens, UniProt P63279+Q9UBE0+Q9UBT2); experiment: SAR analysis of SUMOylation using HTRF in an in-Vitro dose response assay. [Related pubchem assays (depositor defined):AID2006, AID2011, AID2018, AID2069, AID2658]; type: functional
Sequence of SUMO E1/E2 (Q9UBE0 whole entry): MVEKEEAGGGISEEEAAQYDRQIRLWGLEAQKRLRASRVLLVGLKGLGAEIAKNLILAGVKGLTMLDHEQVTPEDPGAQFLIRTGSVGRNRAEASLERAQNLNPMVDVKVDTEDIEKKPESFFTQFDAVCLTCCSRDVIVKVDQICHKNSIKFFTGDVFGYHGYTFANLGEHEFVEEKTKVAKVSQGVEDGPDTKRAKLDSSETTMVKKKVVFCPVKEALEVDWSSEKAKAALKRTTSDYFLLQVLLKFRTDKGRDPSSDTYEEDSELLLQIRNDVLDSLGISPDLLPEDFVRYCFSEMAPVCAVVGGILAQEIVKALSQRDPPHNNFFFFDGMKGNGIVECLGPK
Sequence of SUMO E1/E2 (Q9UBT2 whole entry): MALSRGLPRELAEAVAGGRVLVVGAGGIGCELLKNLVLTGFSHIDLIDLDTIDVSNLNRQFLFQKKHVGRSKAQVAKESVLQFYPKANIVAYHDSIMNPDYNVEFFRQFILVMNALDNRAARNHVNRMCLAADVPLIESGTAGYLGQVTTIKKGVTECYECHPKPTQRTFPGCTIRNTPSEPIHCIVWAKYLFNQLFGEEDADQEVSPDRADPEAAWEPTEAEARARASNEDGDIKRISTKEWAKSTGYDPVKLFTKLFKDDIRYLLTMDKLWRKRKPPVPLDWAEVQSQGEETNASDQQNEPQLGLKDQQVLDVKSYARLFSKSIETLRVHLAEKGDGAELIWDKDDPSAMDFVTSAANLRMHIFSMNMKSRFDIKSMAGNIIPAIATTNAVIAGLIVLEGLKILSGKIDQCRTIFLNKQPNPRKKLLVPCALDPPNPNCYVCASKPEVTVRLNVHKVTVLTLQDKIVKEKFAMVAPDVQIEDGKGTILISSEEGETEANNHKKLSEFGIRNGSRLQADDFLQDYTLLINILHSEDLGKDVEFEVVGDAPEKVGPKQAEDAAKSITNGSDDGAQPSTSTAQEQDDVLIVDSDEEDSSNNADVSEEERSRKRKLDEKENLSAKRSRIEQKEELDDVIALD
Sequence of SUMO E1/E2 (P63279 whole entry): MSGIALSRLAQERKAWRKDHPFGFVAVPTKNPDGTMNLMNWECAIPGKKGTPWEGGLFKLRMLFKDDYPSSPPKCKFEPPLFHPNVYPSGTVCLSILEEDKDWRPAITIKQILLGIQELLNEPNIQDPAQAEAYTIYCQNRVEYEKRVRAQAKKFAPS

[6] = cytotoxicity toward NIH3T3 fibroblasts, dose response, counter-screen, cell-based, ATP luminescence, mouse fibroblasts (AID 2010); type: functional;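 note: cells exposed to compound for about 90 hours before reading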
[7] = biological target: T1, Ubiquitin-conjugating enzyme E2 N (Homo sapiens, UniProt P61088); type: functional
T1 sequence (P61088 whole entry): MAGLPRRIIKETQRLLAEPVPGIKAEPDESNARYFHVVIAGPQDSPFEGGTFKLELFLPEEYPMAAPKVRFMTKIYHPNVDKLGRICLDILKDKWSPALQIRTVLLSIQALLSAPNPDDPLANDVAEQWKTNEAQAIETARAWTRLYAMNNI

INS1 = experiment: beta cell apoptosis inhibitors, cytokine rescue, dose response, luminescence, retest (AID 449756); type: functional, cell-based; conditions: Rattus norvegicus;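 note: cell death triggered by IL-1 beta plus TNF-alpha plus IFN-gamma mixture; protective hits raise ATP signal compared with cytokine alone wells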
[8] = biological target: T1, Ubiquitin-conjugating enzyme E2 N; type: functional; remark: listed apart in the source
Bcl-2-related protein A1 = biological target: T2, Bcl-2-related protein A1 (Mus musculus, UniProt Q07440); type: functional;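 note: confirmatory dose–response counterscreen on Bfl-1, used to check hits from a UBC13 polyubiquitin inhibitor campaign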
T2 sequence (Q07440 whole entry): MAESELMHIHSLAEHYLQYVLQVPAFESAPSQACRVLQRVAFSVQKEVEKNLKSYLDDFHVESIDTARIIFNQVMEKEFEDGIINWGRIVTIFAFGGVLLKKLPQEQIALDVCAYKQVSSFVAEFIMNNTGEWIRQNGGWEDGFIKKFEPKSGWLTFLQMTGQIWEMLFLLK

[9] = inhibitors of intracellular T. cruzi replication, confirmation, NIH3T3 host cells, beta-gal luminescence (AID 2044); type: functional, cell-based;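 note: intracellular parasites grown in NIH/3T3 mouse fibroblasts as host cells; luminescent beta-galactosidase reporter signal from transgenic T. cruzi replicating inside host cells; inhibitors lower the luminescence signal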
[10] = THP-1 cell cytotoxicity, dose response, cytotoxicity control for Vif-APOBEC3G degradation inhibitor project, THP-1 cells (AID 1117359); type: functional; conditions: Human immunodeficiency virus 1, THP-1
Cytochrome P450 2D6 = Cytochrome P450 2D6 (Homo sapiens, UniProt P10635);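 note: CYP2D6 member of a cytochrome P450 panel assay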
Sequence of Cytochrome P450 2D6 (P10635 whole entry): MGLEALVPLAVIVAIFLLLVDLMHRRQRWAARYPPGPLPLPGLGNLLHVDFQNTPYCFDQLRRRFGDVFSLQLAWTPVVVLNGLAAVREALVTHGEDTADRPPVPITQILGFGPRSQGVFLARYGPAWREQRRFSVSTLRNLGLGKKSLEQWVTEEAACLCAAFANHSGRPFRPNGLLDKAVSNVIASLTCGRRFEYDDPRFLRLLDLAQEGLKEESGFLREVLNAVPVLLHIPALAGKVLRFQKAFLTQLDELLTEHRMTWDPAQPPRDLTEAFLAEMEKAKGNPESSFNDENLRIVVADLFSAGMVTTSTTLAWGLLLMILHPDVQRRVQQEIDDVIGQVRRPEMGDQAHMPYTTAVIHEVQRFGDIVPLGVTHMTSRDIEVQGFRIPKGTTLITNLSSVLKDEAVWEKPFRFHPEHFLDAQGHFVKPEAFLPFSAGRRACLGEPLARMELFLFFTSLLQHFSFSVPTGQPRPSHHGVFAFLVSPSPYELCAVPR

Cytochrome P450 2C9 [11] = biological target: T3, Cytochrome P450 2C9 (Homo sapiens, UniProt P11712)
T3 sequence (P11712 whole entry): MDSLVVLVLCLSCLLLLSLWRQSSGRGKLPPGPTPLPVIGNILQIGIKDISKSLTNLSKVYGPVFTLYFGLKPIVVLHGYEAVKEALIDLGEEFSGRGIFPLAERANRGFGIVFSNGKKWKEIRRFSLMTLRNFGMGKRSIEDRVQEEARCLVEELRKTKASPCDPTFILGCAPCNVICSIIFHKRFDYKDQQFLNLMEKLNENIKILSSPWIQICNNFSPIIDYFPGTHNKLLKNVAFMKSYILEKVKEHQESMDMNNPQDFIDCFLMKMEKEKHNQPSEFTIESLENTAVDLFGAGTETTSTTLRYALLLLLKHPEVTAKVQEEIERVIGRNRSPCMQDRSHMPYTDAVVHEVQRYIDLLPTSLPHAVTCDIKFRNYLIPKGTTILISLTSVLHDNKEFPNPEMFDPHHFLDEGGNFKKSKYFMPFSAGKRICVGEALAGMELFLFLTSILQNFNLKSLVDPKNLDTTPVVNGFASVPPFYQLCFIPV

Cytochrome P450 2C9 [12] = biological target: T3, Cytochrome P450 2C9; conditions: Potency
[13] = biological target: Voltage-gated inwardly rectifying potassium channel KCNH2 (Homo sapiens, UniProt Q12809); conditions: Potency;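 note: confirmatory quantitative high-throughput screen measuring inhibition of hERG channel activity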
Sequence of Voltage-gated inwardly rectifying potassium channel KCNH2 (Q12809 whole entry): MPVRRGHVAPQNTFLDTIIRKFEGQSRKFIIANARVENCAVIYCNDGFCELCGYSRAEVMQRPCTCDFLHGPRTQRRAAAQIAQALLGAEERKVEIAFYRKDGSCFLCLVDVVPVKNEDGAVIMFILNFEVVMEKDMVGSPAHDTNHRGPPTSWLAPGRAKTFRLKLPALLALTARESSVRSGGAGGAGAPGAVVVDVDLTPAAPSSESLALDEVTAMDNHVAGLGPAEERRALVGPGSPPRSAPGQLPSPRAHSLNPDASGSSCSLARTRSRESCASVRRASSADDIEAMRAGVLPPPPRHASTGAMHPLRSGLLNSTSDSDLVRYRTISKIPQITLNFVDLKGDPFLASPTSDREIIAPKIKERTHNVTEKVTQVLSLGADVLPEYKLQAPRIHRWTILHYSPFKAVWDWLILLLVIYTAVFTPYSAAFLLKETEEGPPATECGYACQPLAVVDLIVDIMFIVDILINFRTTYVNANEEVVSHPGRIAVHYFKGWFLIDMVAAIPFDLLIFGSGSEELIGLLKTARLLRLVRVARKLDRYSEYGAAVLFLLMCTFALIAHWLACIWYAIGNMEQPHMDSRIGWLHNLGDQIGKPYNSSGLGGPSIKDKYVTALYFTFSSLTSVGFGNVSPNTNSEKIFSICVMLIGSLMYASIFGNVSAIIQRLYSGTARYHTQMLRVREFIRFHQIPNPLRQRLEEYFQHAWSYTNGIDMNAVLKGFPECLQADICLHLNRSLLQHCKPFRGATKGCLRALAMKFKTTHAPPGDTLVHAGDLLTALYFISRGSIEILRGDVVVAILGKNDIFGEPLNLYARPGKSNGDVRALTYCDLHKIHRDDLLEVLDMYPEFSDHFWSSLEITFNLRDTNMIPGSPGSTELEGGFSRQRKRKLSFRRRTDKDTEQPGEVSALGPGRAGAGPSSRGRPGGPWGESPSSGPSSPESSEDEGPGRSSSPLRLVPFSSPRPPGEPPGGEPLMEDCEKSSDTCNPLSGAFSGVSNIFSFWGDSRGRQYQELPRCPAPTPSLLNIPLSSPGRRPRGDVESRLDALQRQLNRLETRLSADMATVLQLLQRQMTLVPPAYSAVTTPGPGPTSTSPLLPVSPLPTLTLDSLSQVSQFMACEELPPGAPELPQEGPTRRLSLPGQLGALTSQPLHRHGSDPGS

SMILES: CCOC(=O)CN=C(S)N(Cc1cccs1)C1CCCCC1
EC50 (HEK293 [1]): > 59.6 µM (inactive) | EC50 (HEK293 [2]): > 59.6 µM (inactive)

SMILES: CC(C)Oc1cccc(C(=O)C2CCCN(Cc3cccn3-c3ccccn3)C2)c1 (stereo not drawn)
IC50 [3]: 3.3 µM (active) | IC50 [4]: 7.53 µM (active)

AC50 [5]: 1.34 µM (active) | IC50 (Genome polyprotein): 23.5 µM (active)
SMILES: CC(=O)N(C(C)=O)N1C(=O)/C(=C/c2ccc(Cl)cc2)SC1=S
CC50 (Vero): > 40 µM (active)

AC50 (Cytochrome P450 3A4): inconclusive
SMILES: OCCN1CCOCCOCCN(CCO)CCN(CCO)CC1

IC50 (SUMO E1/E2): > 100 µM (inactive)
SMILES: Cc1ccsc1/C=N/c1ccc(C(N)=O)cc1

IC50 (SUMO E1/E2): 30.1 µM (active)
SMILES: COc1ccccc1CNC(=O)COC(=O)c1cc(-c2cccs2)nc2ccccc12

SMILES: COc1cc(/C=N/N=C(N)N)ccc1OCc1ccc(Cl)cc1
EC50 [6]: > 30 µM (not active) | IC50 [3]: 1.03 µM (active) | IC50 [7]: 13.2 µM (active) | AC50 (INS1): 2.95 µM (active) | IC50 [8]: 12.9 µM (active) | IC50 (Bcl-2-related protein A1): > 20 µM (inactive) | EC50 [9]: 0.397 µM (active) | CC50 [10]: 5.63 µM (active) | IC50 [4]: 0.916 µM (active)

SMILES: COc1cc2c(c(OC)c1OC)-c1ccc(OC)c(=O)cc1[C@H](NC(C)=O)CC2
AC50 (Cytochrome P450 2D6): inactive | AC50 (Cytochrome P450 2C9 [11]): inactive | AC50 (Cytochrome P450 2C9 [12]): 39.8 µM (inconclusive)

SMILES: Nc1c2c(nc3ccccc13)CCCC2O (stereo not drawn) [VELNACRINE MALEATE]
AC50 [13]: 35.5 µM (inconclusive)
